Values of other authors in patent publication US20110014269A1, “CIVAMIDE PATCH FOR LOCALIZED POST-INCISIONAL NEUROPATHIC PAIN” (WINSTON LABORATORIES, INC., priority 2009, published 2011).

Conditions: treatment of painful, inflammatory or allergic disorders

Structure (SMILES): COc1cc(CNC(=O)CCCC/C=C\C(C)C)ccc1O [Civamide, cis-8-methyl-N-vanillyl-6-nonenamide]
- burning and stinging relative to capsaicin's use: significantly less
